What was measured:
Type in all cases: in vivo
[1] = tested on: root-knot nematode, Meloidogyne incognita var. acrita; assay: Nematocide Test; design: key: 1: severe galling, equal to untreated plants; 2: moderate galling; 3: light galling; 4: very light galling; 5: no galling, perfect control; conditions: 3.33 m.g. of test compound per jar; cucumber, approximately 3 weeks
Protocol: The test organism used was the infective migratory larvae of the root-knot nematode, Meloidogyne incognita var. acrita, reared in the greenhouse on roots of cucumber plants. Infected plants were removed from the culture, and the roots are chopped very finely. A small amount of this inoculum was added to a pint jar containing approximately 180 cc. of soil. The jars were capped and incubated for one week at room temperature. During this period eggs of the nematode were hatched, and the larval forms migrated into the soil.
Ten ml. of the test formulation were added to each of the two jars for each dosage tested. Following the addition of chemical, the jars were capped, and the contents thoroughly mixed on a ball mill for 5 minutes.
The test compounds were formulated by a standard procedure of solution in acetone addition of an emulsifier, and dilution with water. Primary screening tests were conducted at 3.33 m.g. of the test compound per jar.
The jars were left capped at room temperature for a period of 48 hours, and the contents then transferred to 3 inch pots. Subsequently, the pots were seeded to cucumber as an indicator crop and placed in the greenhouse where they were cared for in the normal fashion for approximately 3 weeks.
The cucumber plants were then taken from the pots, the soil removed from the roots, and the amount of galling visually rated.
In the test for activity against nematodes activity was rated as follows: […]

[2] = peroral toxicity to mammals (rat); conditions: in vivo, po, dose required to achieve mortality rate of 50 percent, read-out: A.O. RAT LD50
Protocol: (§1) Certain of these compositions were also evaluated to determine their peroral toxicity to mammals. The animal selected for this experiment was the rat. The test results obtained are expressed in terms of the number of milligrams of compositions per kilogram of weight of the animal required to achieve a mortality rate of 50 percent (LD50).

rat = assay: peroral toxicity to mammals (rat); conditions: dose required to achieve mortality rate of 50 percent
Protocol: as §1

Molecule | NEMATODES activity rating (galling) [1] | LD50 [2] [mg/kg] | A.O. RAT LD50 (rat) [mg/kg]
CC(C)C(=O)C(C)(C)SN(C)C(=O)ON=C(C#N)c1ccccc1 [α-Cyanobenzaldehyde 0-[N-methyl-N-(2,4-dimethyl-3-oxo-2-pentanesulfenyl)carbamoyl]oxime] | 3 |  | 
CSC(C)=NOC(=O)N(C)SC(C)(C)C(=O)C(C)C [1-Methylthioacetaldehyde O-[N-methyl-N-(2,4-dimethyl-3-oxo-2-pentanesulfenyl)carbamoyl]oxime] | 1 | 134 | 
CC(=NOC(=O)N(C)SSC(C)(C)C(=O)C(C)C)SC(C)C [1-Isopropylthioacetaldehyde 0-[N-methyl-N-(2,4-dimethyl-3-oxo-2-pentanethiosulfenyl)carbamoyl]oxime] | 4 | 42 | 
CC(C)C(=O)C(C)(C)SN(C)C(=O)ON=CC(C)(C)[N+](=O)[O-] [2-Nitro-2-methylpropionaldehyde O-[N-methyl-N-(2,4-dimethyl-3-oxo-2-pentanesulfenyl)carbamoyl]oxime] |  | 12 | 
4-[[0-[N-Methyl-N-(2,4-dimethyl-3-oxo-2-pentanethiosulfenyl)carbamoyl]oximino]]-5-methyl-1,3-oxathiolane | 3 |  | 8
CC(=NOC(=O)N(C)SC(C)(C)C(=O)C(C)C)SC(C)C [1Isopropylthioacetaldehyde O-[N-methyl-N-(2,4-dimethyl-3-oxo-2-pentanesulfenyl)carbamoyl]oxime] | 3 | 37 | 
CSC(C)=NOC(=O)N(C)SSC(C)(C)C(=O)c1ccccc1 [1-Methylthioacetaldehyde O-[N-methyl-N-(2-benzoyl-2-propanethiosulfenyl)carbamoyl]oxime] |  | 226 | 
CC(C)C(=O)C(C)(C)SN(C)C(=O)Oc1cccc2c1OC(C)(C)C2 [7-[N-methyl-N-(2,4-dimethyl-3-oxo-2-pentanesulfenyl)carbamoyloxy]-2,2-dimethyl-2,3-dihydrobenzofuran] |  | 31 | 
CC(C)C(=O)C(C)(C)SN(C)C(=O)ON=C1SCOC1C (centres unmarked) [4-[[O-[N-methyl-N-(2,4-dimethyl-3-oxo-2-pentanesulfenyl)carbamoyl]oximino]]-5-methyl-1,3-oxathiolane] |  | 16 | 
CSC(C)(C)C=NOC(=O)N(C)SC(C)(C)C(=O)C(C)C [2-Methylthio-2-methylpropionaldehyde O-[N-methyl-N-(2,4-dimethyl-3-oxo-2-pentanesulfenyl)carbamoyl]oxmine] | 3 |  | 
1-(2-Cyanoethylthio)acetaldehyde 0-[N-methyl-N-(2,4-dimethyl-3-oxo-2-pentanethiosulfenyl)carbamoyl]oxime | 5 |  | 
CN(SC(C)(C)C(=O)c1ccccc1)C(=O)ON=C1SC(C)(C)C(=O)N1C [2-[[O-[N-methyl-N-(2-benzoyl-2-propanesulfenyl)carbamoyl]oximino]]-3,5,5-trimethylthiazolidin-4-one] | 3 |  | 
CC(C)C(=O)C(C)(C)SN(C)C(=O)ON=C1SC(C)(C)C(=O)N1C [2-[O-[N-methyl-(2,4-dimethyl-3-oxo-2-pentanesulfenyl)carbamoyl]oximino]-3,5,5-trimethylthiazolidin-4-one] |  | 226 | 
CSC(C)=NOC(=O)N(C)SSC(C)(C)C(=O)C(C)C [1-Methylthioacetaldehyde 0-[N-methyl-N-(2,4-dimethyl-3-oxo-2-pentanethiosulfenyl)carbamoyl]oxime] | 3 | 226 | 
CC(C)C(=O)C(C)(C)SN(C)C(=O)ON=C1CSCCS1 [2-[[O-[N-methyl-N-(2,4-dimethyl-3-oxo-2-pentanesulfenyl)carbamoyl]oximino]]-1,4-dithiane] | 3 |  | 

Reference: patent publication US4179514A, “Ketoalkanesulfenyl and ketoalkanethiosulfenyl carbamates” (priority 1978, dated 1979)
